Test results published in patent US6576620B2, “Method of identifying partial adenosine A1 receptor agonists” (CV Therapeutics, Inc., priority 1999, dated 2003).
Several values for one entry are separate records, joined by “and”; a condition that tells them apart may be missing. Equal values may be shown once. Read-outs that look alike come from different tables or passages of the source.

Columns and labels:
[1] = system: guinea pig isolated heart; assay: A-V nodal conduction time / S-H interval, isolated perfused heart; details: for S-H interval Efficacy: Table 5, 2759 = CVT-2759; for EC50: Cavia porcellus
Description: This method evaluates the potencies of compounds to cause coronary vasodilation (A2A AdoR response) and to prolong A-V nodal conduction time (A1 AdoR response).
Rats and guinea pigs, of either sex weighing from 230 to 260 grams and 300 to 350 grams, respectively, were used in this study. Animals were anesthetized by peritoneal injection of a cocktail containing ketamine and xylazine (ketamine 100 mg, xylazine 20 mg/ml). The chest was opened and the heart quickly removed. The heart was briefly rinse in ice-cold Krebs-Henseleit solution (see below), and the aorta cannulated. The heart was then perfused at a flow rate of 10 ml/min with modified Krebs-Henseleit (K-H) solution containing NaCl 117.9, KCl 4.5, CaCl2 2.5, MgSO4 1.18, KH2PO4 1.18, pyruvate 2.0 mmol. The K-H solution (pH 7.4) was gassed continuously with 95% O2 and 5% CO2 and warmed to 35±0.50° C. The heart was electrically paced at a fixed cycle length of […] (250 beats/min) using a bipolar electrode place on the left atrium. The electrical stimuli were generated by a Grass stimulator (Model S48, W. Warwick, R.I.) and delivered through a Stimuli Isolation Unit (Model SIU5, Astro-Med, Inc., NY) as square-wave pulses of 3-msec in duration and amplitude of at least twice the threshold intensity.
A1 adenosine receptor-mediated depression of A-V nodal conduction time (negative dromotropic effect) was measured. Atrial and ventricular surface electrograms in rats and His bundle electrogram in guinea pigs, were recorded during constant atrial pacing.
The effects of compounds on coronary conductance (A2A effect) and atrioventricular conduction time or stimulus-to-His-bundle (S-H) interval (A1 effect) was then determined. Hearts were instrumented for continuous recording of coronary perfusion pressure (A2A response) and atrioventricular (A-V) conduction time or S-H interval (A1 response). In each experiment, concentration-response relationship of compounds to increase coronary conductance and to prolong A-V conduction time or S-H interval was determined. After control measurements of CPP and A-V conduction time or S-H interval were made, progressive higher concentrations of the compound studied was administered until maximal coronary vasodilation and A-V nodal conduction time or S-H interval prolongation were achieved.
Guinea pigs (Hartley) of either sex weighing 300-350 g were anaesthetized with methoxyflurane and killed by decapitation. The chest was cut open and the heart was removed quickly and rinsed in ice-cold modified Krebs-Henseleit (K-H) solution. The contents of the modified K-H solution were (in mM): NaCl 117.9, KCl 4.8, CaCl2 2.5, MgSO2 1.18, KH2PO4 1.2, Na2 EDTA 0.5, ascorbic acid 0.14, dextrose 5.5, pyruvic acid (sodium salt) 2.0, and NaHCO3 25. The K-H solution was continuously gassed with 95% oxygen and 5% CO2, and the pH was adjusted to a value of 7.4. To perfuse the heart by the Langendorff method, the transected aorta was slid onto a glass cannula and secured by a ligature. Retrograde perfusion of the aorta was initiated immediately at a constant flow of 10 ml min-′ with modified K-H solution warmed to 36.0±0.5° C. A side port in the cannula was used to connect the perfusion line to a Gould pressure transducer for measurement of coronary perfusion pressure. Coronary perfusion pressure was continuously recorded on a strip chart (Gould RS3400, Cleveland, Ohio) throughout each experiment. Coronary conductance (in ml min^−1 mmHg^−1) was calculated as the ratio of coronary flow (10 ml min^−1) to perfusion pressure (mm Hg). To facilitate the exit of fluid from the left ventricle, the leaflets of the mitral valve were trimmed with fine spring-handled scissors. When appropriate, hearts were paced at a constant rate using external electrodes. […]

Adenosine A1 receptor [2] = target: T1, Adenosine A1 receptor (Cavia porcellus, UniProt P47745); assay: Affinity binding (Ki) of Tables 4 and 5
T1 construct: from tissue; host or cells: guinea pig forebrain membranes
T1 sequence (P47745 1-326): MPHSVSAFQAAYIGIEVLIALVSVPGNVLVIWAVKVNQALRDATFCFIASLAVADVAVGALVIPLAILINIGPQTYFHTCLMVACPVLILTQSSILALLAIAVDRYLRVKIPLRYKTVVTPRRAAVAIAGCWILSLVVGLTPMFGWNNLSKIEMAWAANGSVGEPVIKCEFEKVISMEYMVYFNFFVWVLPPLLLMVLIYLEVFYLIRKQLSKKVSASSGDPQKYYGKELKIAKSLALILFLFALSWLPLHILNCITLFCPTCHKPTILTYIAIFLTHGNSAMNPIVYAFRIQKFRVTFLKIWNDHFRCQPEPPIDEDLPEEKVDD
Description: The binding affinity of a compound is evaluated in a competitive binding assay.

Adenosine A1 receptor [3] = assay: A1-agonist stimulated [35S]GTPγS binding to G proteins; type: biochemical; details: for GTPγS (% of CPA): Table 5; for GTPγS: Table 1, compounds of Example 2, normalized to the full agonist CPA
Description: At the end of the incubation, each suspension was filtered and the retained radioactivity determined as described above.

[4] = Table 4, A-V nodal conduction time, read-out: EC50 A-V NCT
[5] = Table 5, S-H interval, read-out: EC50

CCCn1c(=O)c2[nH]c(C3CCCC3)nc2n(CCC)c1=O [CPX, 8-cyclopentyl-1,3-dipropylxanthine, reference compound]
S-H interval ([1]; 50 nM CPX in continued presence of 10 μM Compound 6 of Example 2 (58±2 msec before CPX)): 50 ± 2 ms

O[C@@H]1[C@H](O)[C@@H](CSc2c(Cl)cccc2Cl)O[C@H]1n1cnc2c(N[C@@H]3CCOC3)ncnc21 [Compound 19 of Example 4, 2-{6-[((3R)oxolan-3-yl)amino]purin-9-yl}(4S,5S,2R,3R)-5-[(2,6-dichlorophenylthio)methyl]oxolane-3,4-diol]
Ki (Adenosine A1 receptor [2]; Table 5, read-out: Ki): 1.34 µM
GTPγS (% of CPA) (Adenosine A1 receptor [3]): 89 % of CPA
S-H interval Efficacy [1]: Full (>2759)

O[C@@H]1[C@H](O)[C@@H](CSc2cccc(F)c2)O[C@H]1n1cnc2c(N[C@@H]3CCOC3)ncnc21 [Compound 20 of Example 4, 2-{6-[((3R)oxolan-3-yl)amino]purin-9-yl}(4S,5S,2R,3R)-5-[(3-fluorophenylthio)methyl]oxolane-3,4-diol]
Ki (Adenosine A1 receptor [2]; Table 5, read-out: Ki): 1.56 µM
GTPγS (% of CPA) (Adenosine A1 receptor [3]): 84.2 % of CPA
S-H interval Efficacy [1]: Partial (= 2759)

O[C@@H]1[C@H](O)[C@@H](CSc2ccccc2F)O[C@H]1n1cnc2c(N[C@@H]3CCOC3)ncnc21 [Compound 21 of Example 4, 2-{6-[((3R)oxolan-3-yl)amino]purin-9-yl}(4S,5S,2R,3R)-5-[(2-fluorophenylthio)methyl]oxolane-3,4-diol]
Ki (Adenosine A1 receptor [2]; Table 4, read-out: Ki low): 0.6 µM
Ki (Adenosine A1 receptor [2]; Table 5, read-out: Ki): 0.372 µM and 0.221 µM
GTPγS (% of CPA) (Adenosine A1 receptor [3]): 72 % of CPA
EC50 [1, 4]: 1.2 µM
EC50 [1, 5]: 1.26 µM
S-H interval Efficacy [1]: Partial (>2759)

CNC(=S)OC[C@H]1O[C@@H](n2cnc3c(N[C@@H]4CCOC4)ncnc32)[C@H](O)[C@@H]1O [Compound 45 of Example 2, 2-{6-[((3R)oxolan-3-yl)amino]purin-9-yl}(4S,2R,3R,5R)-5-{[(methylamino)thioxomethoxy]methyl}oxolane-3,4-diol]
Ki (Adenosine A1 receptor [2]; Table 4, read-out: Ki low): 0.4 µM
Ki (Adenosine A1 receptor [2]; Table 5, read-out: Ki): 0.346 µM
GTPγS (Adenosine A1 receptor [3]): 77%
GTPγS (% of CPA) (Adenosine A1 receptor [3]): 77 % of CPA
EC50 [1, 4]: 0.6 µM
EC50 [1, 5]: 0.57 µM
S-H interval Efficacy [1]: Partial

CCNC(=S)OC[C@H]1O[C@@H](n2cnc3c(N[C@@H]4CCOC4)ncnc32)[C@H](O)[C@@H]1O [Compound 46 of Example 2, 2-{6-[((3R)oxolan-3-yl)amino]purin-9-yl}(4S,2R,3R,5R)-5-{[(ethylamino)thioxomethoxy]methyl}oxolane-3,4-diol]
Ki (Adenosine A1 receptor [2]; Table 5, read-out: Ki): 1.11 µM
GTPγS (Adenosine A1 receptor [3]): 77%
GTPγS (% of CPA) (Adenosine A1 receptor [3]): 77 % of CPA
S-H interval Efficacy [1]: Full (Weak)

CC(C)NC(=S)OC[C@H]1O[C@@H](n2cnc3c(N[C@@H]4CCOC4)ncnc32)[C@H](O)[C@@H]1O [Compound 47 of Example 2, 2-{6-[((3R)oxolan-3-yl)amino]purin-9-yl}(4S,2R,3R,5R)-5-({[(methylethyl)amino]thioxomethoxy}methyl)oxolane-3,4-diol]
Ki (Adenosine A1 receptor [2]; Table 5, read-out: Ki): 1.37 µM

O[C@@H]1[C@H](O)[C@@H](COC(=S)N[C@H]2CCC[C@@H]2O)O[C@H]1n1cnc2c(N[C@@H]3CCOC3)ncnc21 [Compound 64 of Example 2, 2-{6-[((3R)oxolan-3-yl)amino]purin-9-yl}(4S,2R,3R,5R)-5-({[((1S,2S)-2-hydroxycyclopentyl)amino]thioxomethoxy}methyl)oxolane-3,4-diol]
GTPγS (Adenosine A1 receptor [3]): 99%

O=C(NC1CCCC1C(=O)O)OC[C@H]1O[C@@H](n2cnc3c(N[C@@H]4CCOC4)ncnc32)[C@H](O)[C@@H]1O (stereo partly shown) [Compound 65 of Example 2]
GTPγS (Adenosine A1 receptor [3]): 81%

O=C(O)CCNC(=O)OC[C@H]1O[C@@H](n2cnc3c(N[C@@H]4CCOC4)ncnc32)[C@H](O)[C@@H]1O [Compound 67 of Example 2, 3-{[(5-{6-[((3R)oxolan-3-yl)amino]purin-9-yl}(3S,2R,4R,5R)-3,4 dihydroxyoxolan-2-yl)methoxy]carbonylamino}propanoic acid]
GTPγS (Adenosine A1 receptor [3]): 59%

O=C(O)CNC(=O)OC[C@H]1O[C@@H](n2cnc3c(N[C@@H]4CCOC4)ncnc32)[C@H](O)[C@@H]1O [Compound 68 of Example 2, 2-{[(5-{6-[((3R)oxolan-3-yl)amino]purin-9-yl}(3S,2R,4R,5R)-3,4 dihydroxyoxolan-2-yl)methoxy]carbonylamino}acetic acid]
GTPγS (Adenosine A1 receptor [3]): 76%

COC(=S)NC[C@H]1O[C@@H](n2cnc3c(N[C@@H]4CCOC4)ncnc32)[C@H](O)[C@@H]1O [Compound 71 of Example 2]
GTPγS (Adenosine A1 receptor [3]): 98%

O=C(NC1CCCC1)SC[C@H]1O[C@@H](n2cnc3c(N[C@@H]4CCOC4)ncnc32)[C@H](O)[C@@H]1O [Compound 73 of Example 2, [(5-{6-[((3R)oxolan-3-yl)amino]purin-9-yl}(2S,3S,4R,5R)-3,4-dihydroxyoxolan-2-yl)methythio]-N-cyclopentylcarboxamide]
GTPγS (Adenosine A1 receptor [3]): 109%

CNC(=S)SC[C@H]1O[C@@H](n2cnc3c(N[C@@H]4CCOC4)ncnc32)[C@H](O)[C@@H]1O [Compound 74 of Example 2, 2-{6-[((3R)oxolan-3-yl)amino]purin-9-yl}(4S,5S,2R,3R)-5-{[(methylamino)thioxomethylthio]methyl}oxolane-3,4-diol]
GTPγS (Adenosine A1 receptor [3]): 95%

O[C@@H]1[C@H](O)[C@@H](CSC(=S)NC2CCCC2)O[C@H]1n1cnc2c(N[C@@H]3CCOC3)ncnc21 [Compound 75 of Example 2]
GTPγS (Adenosine A1 receptor [3]): 91%

CNC(=S)NC[C@H]1O[C@@H](n2cnc3c(N[C@@H]4CCOC4)ncnc32)[C@H](O)[C@@H]1O [Compound 77 of Example 2, 2-{6-[((3R)oxolan-3-yl)amino]purin-9-yl}(4S,2R,3R,5R)-5-({[(methylamino)thioxomethyl]amino}methyl)oxolane-3,4-diol]
GTPγS (Adenosine A1 receptor [3]): 101%

O[C@@H]1[C@H](O)[C@@H](CNC(=S)NC2CCCC2)O[C@H]1n1cnc2c(N[C@@H]3CCOC3)ncnc21 [Compound 78 of Example 2, 2-{6-[((3R)oxolan-3-yl)amino]purin-9-yl}(4S,2R,3R,5R)-5-({[(cyclopentylamino)thioxomethyl]amino}methyl)oxolane-3,4-diol]
GTPγS (Adenosine A1 receptor [3]): 95%

O=c1occn1C[C@H]1OC(n2cnc3c(N[C@@H]4CCOC4)ncnc32)[C@H](O)[C@@H]1O (stereo partly drawn) [Compound 80 of Example 2, 3-[(5-{6-[((3R)oxolan-3-yl)amino]purin-9-yl}(3S,2R,4R)-3,4-dihydroxyoxolan-2-yl)methyl]-1,3-oxazolin-2-one]
GTPγS (Adenosine A1 receptor [3]): 80%

CNC(=O)OC[C@H]1O[C@@H](n2cnc3c(N[C@@H]4CCOC4)ncnc32)[C@H](O)[C@@H]1O [compound 6]
Ki (Adenosine A1 receptor [2]; Table 4, read-out: Ki low): 2.6 µM
EC50 [1, 4]: 3.1 µM

CCCCNC(=O)OCC1OC(n2cnc3c(N[C@@H]4CCOC4)ncnc32)C(O)C1O (stereo partly shown) [compound 27]
Ki (Adenosine A1 receptor [2]; Table 5, read-out: Ki): 9.63 µM

N-[(5-{6-[((3R)oxolan-3-yl)amino]purin-9-yl}(3S,2R,4R,5R)-3,4-dihydroxyoxolan-2-yl)methy]cyclopentyloxycarboxamide [Compound 70 of Example 2]
GTPγS (Adenosine A1 receptor [3]): 76%
